This note sets out measurements from patent US8273748B2, “Amino alcohol derivative and immunosuppresive agent having same as an active ingredient” (Kyorin Pharmaceutical Co., Ltd., priority 2006, dated 2012).

Usually ED50 stands for the midpoint of the dose-response relation. A higher ED50 goes with a need for a large dose.

What all share (format): in vivo
Series [1] concerns white blood cells in mouse peripheral blood. Kind of series: Activity on total number of white blood cells in mouse peripheral blood. Conditions: BALB/c mice, blood collected 6 hours after administration. Here is the method:
The test compounds were dissolved or suspended in DMSO, and then a physiological saline solution was added to make dosing solutions (DMSO final concentration 1%). If the dosing solutions were not in a dissolved or a uniform suspended state, Tween 80 was added so that the final concentration thereof was 0.01 to 0.1%. The resultant solutions were then sonicated to form a fine suspension. These test compound solutions were intraperitoneally administered in respective amounts of 0.1 mL or 0.2 mL per 10 g of body weight to BALB/cCrSlc male mice (8 to 14 weeks old, Japan SLC). For the control group, only a solvent having the same composition as that used in the preparation of the test compounds was administered in the same manner. Six hours after administration of the test compound solutions, blood was collected from the postcava under ether anesthesia (10 μL of 10% EDTA was added as an anticoagulant). Measurement of the total number of white blood cells was carried out using the automated blood cell counting apparatus Sysmex F-820 (Sysmex). Here, compounds having an inhibition ratio of 60% or more were marked as “+++”, compounds having an inhibition ratio of less than 60% but more than or equal to 50% were marked as “++”, and compounds having an inhibition ratio of less than 50% but more than or equal to 40% were marked as “+”. Furthermore, the inhibition ratios are the results from a dose of 0.3 mg/kg (“[ ]” are the results from 3 mg/kg).

Series [2] deals with mouse host-versus-graft rejection reaction. Briefly: Inhibition activity on mouse host-versus-graft rejection reaction (popliteal lymph node weight). Conditions: ip, inhibition of popliteal lymph node weight increase, C3H/HeN mice, intraperitoneal once per day, 4 times. Here is the method:
Experiment example 2 was carried out by referring to the methods described in Transplantation, Vol. 55, No. 3, pp. 578 to 591, 1993. The spleens from BALB/c male mice which were6 to 23 weeks old (Japan SLC) were collected. The spleens were extracted in RPMI-1640 medium (Sigma), and then turned into a spleen cell suspension by grinding them with 2 glass slides and then passing the ground matter through a strainer (70 microns, Falcon). The spleen cell suspensions were centrifuged, and the supernatants were removed. Then, an ammonium chloride-tris isotonic buffer solution was added, and the red blood cells were hemolyzed. After centrifuging and washing 3 times with RPMI-1640 medium, the cells were suspended in RPMI-1640 medium. Mitomycin C (Kyowa Hakko) was added thereto so that the final concentration was 25 μg/mL, and the cells were incubated for 30 minutes at 37° C. under 5% CO2. After centrifuging and washing 3 times with RPMI-1640 medium, the cells were suspended in RPMI-1640 medium so that the concentration was 2.5×10^8 cells/mL. These cells were used as a stimulator cell suspension. 20 μL (5×10^6 cells/mouse) of the stimulator cell suspension was injected subcutaneously into the right hind-foodpad of C3H/HeN male mice which were6 to 11 weeks old (Clea Japan) using a 27G needle and a microsyringe (Hamilton). For the normal control group, RPMI-1640 medium only was injected. After 4 days, the right popliteal lymph nodes were extracted, and their weight was measured using Mettler AT201 electronic scales (Mettler Toledo). From the day of the stimulator cell suspensions being injected to 3 days thereafter, the test compounds were intraperitoneally administered on consecutive days once per day, for a total of 4 times. For the control group, only a solvent having the same composition as that used in the preparation of the test compounds was administered in the same manner. As the solvent, basically a physiological saline containing 0.5% DMSO was used (suitably adjusted according to the solubility of the compound). The inhibition ratio was calculated using the following equation. [formula]

Series [3] is described as follows: Effect on rat lung weight. The following applies: Wistar rats, lungs extracted 6 hours later. The protocol: Crlj:Wistar rats (male) 5 to 8 weeks old were used in the experiment. An aqueous solution of the test compounds was respectively orally administered in an amount of 0.5 mL per 100 g of rat body weight. The lungs were extracted 6 hours later, and the lung weight was measured.

For series [4], the system named is allogenic skin graft for rats. Briefly: Rat skin graft model (allogenic skin graft survival). Conditions: for MST: oral administration once a day. The protocol:
Using a rat skin graft model, activity on the rejection reaction was investigated.
Skin from the abdomen of a LEW/CrlCrlj rat serving as the donor (male, 5 weeks old, Japan Charles River) was peeled away, and the panniculus carnosus muscule layer under the skin was removed. Then, a 1.8 cm×1.8 cm skin specimen (graft) was prepared. Next, a F344/DuCrlCrlj rat serving as the recipient (male, 5 weeks old, Japan Charles River) was anesthetized by intraperitoneal administration of 40 mg/kg of sodium pentobarbital (nembutal injection, Dainippon Sumitomo Pharma). The hair of the back of the rat was shorn off by electric clippers, and then the remaining hair was further shaved off using a razor. Then, a 1.8 cm×1.8 cm mark was made on the back of the rat, and a shallow cut was made along the mark with a scalpel. Next, the skin was peeled away along this cut by tweezers to produce a graft bed. Several drops of sterile physiological saline solution (Otsuka normal saline, Otsuka Pharmaceutical) were dropped onto the graft bed, and then wiped away with gauze. Several drops of penicillin (crystalline penicillin GpotassiumMeiji, Meiji Seika) were then dropped thereon. Next, the graft was placed on the graft bed. After absorbing excess moisture with sterile gauze, a first-aid bandaid was stuck over the graft. Furthermore, an adhesive bandage was wrapped around the trunk of the rat. On the third day after the operation, a new adhesive bandage was wrapped thereover. On the fifth day after the operation, the bandaid and the bandages were cut open with scissors and removed. Observation of the graft was carried out on consecutive days from when the bandaid was removed (from the fifth day). A determination of graft rejection was made when 90% or more of the graft had died and tuned brown. The number of days from grafting until rejection was confirmed was taken as the survival period. The mean value of the survival period for each group was calculated as the mean survival time (MST). Investigation was carried out with 5 animals per group. All of the rats were housed in individual cages. The test compounds were dissolved in ultra-pure water, and were orally administered once a day, on consecutive days, from the graft day. For the control group, ultra-pure water was administered in the same manner.

Where [5] appears, read: dose 3 mg/kg (values in [ ]) intraperitoneal.

Bounds are passed on as bounds.

For the molecule `C[C@](N)(CO)CCc1ccc(Sc2cccc(C(F)(F)F)c2)cc1Cl.Cl` [Example 29, (R)-2-amino-4-[2-chloro-4-(3-trifluoromethylphenylthio)phenyl]-2-methylbutan-1-ol hydrochloride], the “Inhibition Ratio” value in series [1] (dose 0.3 mg/kg intraperitoneal) is given as “+++ (inhibition ratio of 60% or more)”. In series [2], this molecule yielded an ED50 of 0.1 to 1 mg/kg.
The matching figures for `C[C@](N)(CO)CCc1ccc(Oc2cccc(C(F)(F)F)c2)cc1Cl.Cl` [Example 28, (R)-2-amino-4-[2-chloro-4-(3-trifluoromethylphenoxy)phenyl]-2-methylbutan-1-ol hydrochloride]: “++ (inhibition ratio of less than 60% but more than or equal to 50%)” and 1 to 10 mg/kg.
For the molecule `C[C@](N)(CO)CCCc1ccc(Oc2cccc(C(F)(F)F)c2)cc1Cl.Cl` [Example 26, (R)-2-amino-5-[2-chloro-4-(3-trifluoromethylphenoxy)phenyl]-2-methylpentan-1-ol hydrochloride], in series [3] (up to a dose of 30 mg/kg oral), the “Effect on lung weight” value was “no effects whatsoever on lung weight”. For the same molecule, in series [1] (setting [5]), the “Inhibition Ratio” value was “[+] (inhibition ratio of less than 50% but more than or equal to 40%)”. In addition, in series [2], the ED50 is 0.1 to 1 mg/kg.
As to `C[C@](N)(CO)CCCc1ccc(Sc2cccc(C(F)(F)F)c2)cc1F.Cl` [Example 35, (R)-2-amino-5-[2-fluoro-4-(3-trifluoromethylphenylthio)phenyl]-2-methylpentan-1-ol hydrochloride], in series [2], the ED50 lay within 0.1 to 1 mg/kg.
For the molecule `CCC[C@](N)(CO)CCCc1ccc(Sc2cccc(C(F)(F)F)c2)cc1Cl.Cl` [Example 36, (R)-2-amino-5-[2-chloro-4-(3-trifluoromethylphenylthio)phenyl]-2-propylpentan-1-ol hydrochloride], in series [1] (setting [5]), the “Inhibition Ratio” value is “[++] (inhibition ratio of less than 60% but more than or equal to 50%)”. In series [2], this molecule yielded an ED50 of 0.1 to 1 mg/kg.
`CCc1cccc(Sc2ccc(CCC[C@@](C)(N)CO)c(Cl)c2)c1.Cl` [Example 32, (R)-2-amino-5-[2-chloro-4-(3-ethylphenylthio)phenyl]-2-methylpentan-1-ol hydrochloride] yielded an ED50 in series [2] of 0.1 to 1 mg/kg.
Turning to `C[C@](N)(CO)CCCc1ccc(Sc2cccc(C(F)(F)F)c2)cc1Cl.Cl` [Example 27, (R)-2-amino-5-[2-chloro-4-(3-trifluoromethylphenylthio)phenyl]-2-methylpentan-1-ol hydrochloride], the MST in series [4] (3 mg/kg) is reported as 11.8 days; in series [4] (10 mg/kg) it was 14 days; in series [4] (30 mg/kg) it was 20.4< days. In addition, the “Survival period extension effect of the graft” value in series [4] (individual administration, oral) is reported as “survival period extension effect of the graft was found”. The “Effect on lung weight” value in series [3] (up to a dose of 100 mg/kg oral) was “no effects whatsoever on lung weight”. Further, the “Inhibition Ratio” value in series [1] (dose 0.3 mg/kg intraperitoneal) is “+ (inhibition ratio of less than 50% but more than or equal to 40%)”. Besides, the ED50 in series [2] was below 0.1 mg/kg.
